Test results from patent publication US12240862B2, “Inhibitors of peptidylarginine deiminases” (Gilead Sciences, Inc., priority 2020, dated 2025).

What follows are compounds tested against T1, human PAD4 (Homo sapiens, UniProt Q9UM07) (assay: In vitro PAD4 BAEE biochemical assay). Settings: human PAD4, BAEE substrate; 5 nM PAD4, 2 mM calcium chloride, 3 mM BAEE; geometric mean of multiple experiments.
T1 construct: human PAD4 (NM_012387), A2P663, was PCR amplified; His-SUMO (N, cleaved yes); made in house; host or cells: E. coli BL21(DE3)
T1 sequence (Q9UM07 2-663): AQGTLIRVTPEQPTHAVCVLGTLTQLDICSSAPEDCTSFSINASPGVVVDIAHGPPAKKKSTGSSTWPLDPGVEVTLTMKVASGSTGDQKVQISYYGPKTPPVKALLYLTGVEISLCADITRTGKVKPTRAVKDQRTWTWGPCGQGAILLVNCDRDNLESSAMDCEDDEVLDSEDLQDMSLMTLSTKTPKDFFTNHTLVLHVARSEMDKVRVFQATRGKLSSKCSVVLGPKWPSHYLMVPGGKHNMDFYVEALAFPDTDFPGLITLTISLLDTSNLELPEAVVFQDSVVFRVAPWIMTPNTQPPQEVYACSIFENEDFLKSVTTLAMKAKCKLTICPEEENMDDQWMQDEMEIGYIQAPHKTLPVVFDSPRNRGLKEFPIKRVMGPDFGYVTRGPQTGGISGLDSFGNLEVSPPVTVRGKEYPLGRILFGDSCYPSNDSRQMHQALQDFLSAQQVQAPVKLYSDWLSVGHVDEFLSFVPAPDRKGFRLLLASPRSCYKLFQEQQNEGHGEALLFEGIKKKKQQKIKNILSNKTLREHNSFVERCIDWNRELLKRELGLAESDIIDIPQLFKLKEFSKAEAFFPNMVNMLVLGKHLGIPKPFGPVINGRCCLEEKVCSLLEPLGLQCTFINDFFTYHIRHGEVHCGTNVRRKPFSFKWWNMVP
Experimental: The PCR product was ligated into linearized pET-SUMO vector (Invitrogen, Carlsbad, CA), which is part of the Champion™ pET SUMO Protein Expression System. After sequence verification for the correct orientation, the pET-SUMO-hPAD4 expression plasmid was transformed into BL21(DE3) cells.
E. Coli BL21(DE3) cells were inoculated in LB medium with kanamycin at 37° C. until A600 nm reached about 0.5. Protein expression was induced by addition of 0.5 mM IPTG (final) and continued overnight at 16° C. at 220 rpm.
Cells were harvested by centrifugation at 5000 rpm for 10 minutes at 4° C. The pellet was resuspended in 300 ml lysis buffer (20 mM Tris-HCl, pH 8.0, 1 mM EDTA, 500 mM NaCl, 1 mM (tris(2-carboxyethyl)phosphine) (TCEP), 10% glycerol, and 1% Triton X100 and EDTA free protease inhibitor) and lysed by 3× passage through a microfluidizer (Microfluidics, Newton, MA) at 18,000 psi. The cell lysate was clarified by centrifugation at 30,000 rpm for 60 minutes at 4° C. […] Bound protein was eluted with a 0-100% linear gradient of 100 mL Ni-B buffer (Ni A buffer+0.5 M Imidazole).
The protein was then reloaded onto a Ni—HP column for a reverse purification step and recovered in flow through fraction. The protein with His-Sumo tag removed was then polished using a 16/60 Superdex-200 gel filtration column with gel filtration buffer (20 mM Tris pH 8.0, NaCl 400 mM and 1 mM TCEP). The fractions containing the protein were pulled and frozen at −80° C.
The enzymatic activity of human PAD4 was monitored in a biochemical assay in the presence or absence of compounds using the small peptidyl arginine mimic BAEE (Na-Benzoyl-L-arginine ethyl ester hydrochloride) as substrate. PAD4 activity led to deamination of BAEE and release of ammonia. Levels of ammonia were monitored by using an amine coupling reaction and were indicative of PAD4 enzymatic activity.
One hundred nanoliters of test compounds dissolved in DMSO at various concentrations were dispensed into a 384-well black OptiPlate using a Labcyte Echo instrument. Ten microliters of a solution of recombinant PAD4 and calcium chloride diluted in PAD4 assay buffer (50 mM MOPS [3-(N-morpholino) propanesulfonic acid], pH 7.6; 50 mM sodium chloride; 0.05% Tween-20; 2 mM dithiothreitol) was added to the compound-containing plate and was incubated for 30 minutes at 25° C. Ten microliters of a solution of BAEE (Sigma-Aldrich #B4500) diluted in PAD4 assay buffer was then added to start the reaction. Final concentrations were 5 nM PAD4, 2 mM calcium chloride, and 3 mM BAEE. The reaction mixture was incubated at 25° C. for 2 hours and was stopped with the addition of 10 microliters of a solution of 75 mM EDTA (Ethylenediaminetetraacetic acid) in PAD4 assay buffer. Thirty microliters of detection solution (5 mM o-phthalaldehyde, 50 mM MOPS [3-(N-morpholino) propanesulfonic acid], pH 7.6; 50 mM sodium chloride; 0.05% Tween-20; 5 mM dithiothreitol) was then added and the reaction was incubated for 1 hour at 25° C.
`Cc1c(-c2cc3ccc(N(C(F)F)S(C)(=O)=O)nc3n2CC2CC2)nc2cc(C(=O)N3[C@@H]4CC[C@@H](N)[C@H]3CC4)ccn12` [Example 401, ~{N}-[2-[7-[(1~{R},2~{R}, 5~{R})-2-amino-8-azabicyclo[3.2.1]octane-8-carbonyl]-3-methylimidazo [1,2-a]pyridin-2-yl]-1-(cyclopropylmethyl)pyrrolo [2,3-b]pyridin-6-yl]-~{N}-(difluoromethyl) methanesulfonamide] was tested, and the IC50 was 136 nM. With `COc1cc(C(=O)N2[C@H]3CC[C@@H]2[C@H](N)C3)cc2nc(-c3cc4ccc([C@@H](C)NC(=O)c5cnn(C(C)(C)C)c5)nc4n3CC3CC3)c(C)n12` [Example 82, ~{N}-[(1~{R})-1-[2-[7-[(1~{R},2~{R},4~{S})-2-amino-7-azabicyclo[2.2.1]heptane-7-carbonyl]-5-methoxy-3-methylimidazo [1,2-a]pyridin-2-yl]-1-(cyclopropylmethyl)pyrrolo [2,3-b]pyridin-6-yl]ethyl]-1-~{tert}-butylpyrazole-4-carboxamide] the IC50 was 51.2 nM. With `COc1cc(C(=O)N2[C@@H]3CC[C@H]2[C@@H](N)[C@@H](OC)C3)cc2nc(-c3cc4ccc([C@@H](C)NC(=O)C56CC(F)(C5)C6)nc4n3CC3CC3)c(C)n12` [Example 182] the IC50 was 1360 nM. For `COc1cc(C(=O)N2[C@H]3CC[C@@H]2[C@H](N)C3)cc2nc(-c3cc4ccc(C5CCN(C(=O)N6CCCC6)CC5)nc4n3CC3CC3)c(C)n12` [Example 525, [(1~{R},2~{R},4~{S})-2-amino-7-azabicyclo [2.2.1]heptan-7-yl]-[2-[1-(cyclopropylmethyl)-6-[1-(pyrrolidine-1-carbonyl)piperidin-4-yl]pyrrolo [2,3-b]pyridin-2-yl]-5-methoxy-3-methylimidazo [1,2-a]pyridin-7-yl]methanone], the IC50 was 228 nM. Compound `COc1cc(C(=O)N2[C@H]3CC[C@@H]2[C@H](N)C3)cc2nc(-c3cc4ccc([C@@H](C)NC(=O)Nc5c(C)cccc5C)nc4n3CC3CC3)c(C)n12` [Example 238, 1-[(1~{R})-1-[2-[7-[(1~{R},2~{R},4~{S})-2-amino-7-azabicyclo[2.2.1]heptane-7-carbonyl]-5-methoxy-3-methylimidazo [1,2-a]pyridin-2-yl]-1-(cyclopropylmethyl)pyrrolo [2,3-b]pyridin-6-yl]ethyl]-3-(2,6-dimethylphenyl)urea] has an IC50 of 145 nM. `COc1cc(C(=O)N2[C@H]3CC[C@@H]2[C@H](N)C3)cc2nc(-c3cc4ccc([C@@H](C)N5CCOCC5=O)nc4n3CC3CC3)c(C)n12` [Example 274, 4-[(1~{R})-1-[2-[7-[(1~{R},2~{R},4~{S})-2-amino-7-azabicyclo[2.2.1]heptane-7-carbonyl]-5-methoxy-3-methylimidazo [1,2-a]pyridin-2-yl]-1-(cyclopropylmethyl)pyrrolo [2,3-b]pyridin-6-yl]ethyl]morpholin-3-one] was tested, and the IC50 was 252 nM. With `COc1cc(C(=O)N2CC[C@H]3CCN[C@H]3C2)cc2nc(-c3cc4ccc(N(C(F)F)S(C)(=O)=O)nc4n3CC3CC3)c(C)n12` [Example 325] the IC50 was 154 nM. With `COc1cc(C(=O)N2[C@H]3CC[C@@H]2[C@H](N)C3)cc2nc(-c3cc4ccc([C@@H](C)NC(=O)CC5(OC)CC5)nc4n3CC3CC3)c(C)n12` [Example 33, ~{N}-[(1~{R})-1-[2-[7-[(1~{R},2~{R}, 4~{S})-2-amino-7-azabicyclo[2.2.1]heptane-7-carbonyl]-5-methoxy-3-methylimidazo [1,2-a]pyridin-2-yl]-1-(cyclopropylmethyl)pyrrolo[2,3-b]pyridin-6-yl]ethyl]-2-(1-methoxycyclopropyl) acetamide] the IC50 was 69.8 nM. Compound `COc1cc(C(=O)N2[C@H]3CC[C@@H]2[C@H](N)C3)cc2nc(-c3cc4ccc([C@@H](C)NC(=O)N5CC(C#N)C5)nc4n3CC3CC3)c(C)n12` [Example 234, ~{N}-[(1~{R})-1-[2-[7-[(1~{R},2~{R},4~{S})-2-amino-7-azabicyclo[2.2.1]heptane-7-carbonyl]-5-methoxy-3-methylimidazo [1,2-a]pyridin-2-yl]-1-(cyclopropylmethyl)pyrrolo [2,3-b]pyridin-6-yl]ethyl]-3-cyanoazetidine-1-carboxamide] has an IC50 of 149 nM. For `CC(C)c1c(-c2cc3ccc(N(C(F)F)S(C)(=O)=O)nc3n2CC2CC2)nc2cc(C(=O)N3CCC[C@@H](N)C3)ccn12` [Example 433, ~{N}-[2-[7-[(3~{R})-3-aminopiperidine-1-carbonyl]-3-propan-2-ylimidazo[1,2-a]pyridin-2-yl]-1-(cyclopropylmethyl)pyrrolo [2,3-b]pyridin-6-yl]-~{N}-(difluoromethyl) methanesulfonamide], the IC50 was 7040 nM. For `COc1cc(C(=O)N2[C@H]3CC[C@@H]2[C@@H]2NCCO[C@@H]2C3)cc2nc(-c3cc4ccc([C@@H](C)NC(=O)C56CC(F)(C5)C6)nc4n3CC3CC3)c(C)n12` [Example 13, ~{N}-[(1~{R})-1-[1-(cyclopropylmethyl)-2-[5-methoxy-3-methyl-7-[(1~{R},2~{S},7~{R}, 9~{S})-6-oxa-3,12-diazatricyclo [7.2.1.0^{2,7}]dodecane-12-carbonyl]imidazo[1,2-a]pyridin-2-yl]pyrrolo[2,3-b]pyridin-6-yl]ethyl]-3-fluorobicyclo[1.1.1] pentane-1-carboxamide], the IC50 was 1780 nM. With `COc1cc(C(=O)N2[C@H]3CC[C@@H]2[C@H](N)C3)cc2nc(-c3cc4ccc(N5[C@@H](C(F)(F)F)CCCS5(=O)=O)nc4n3CC3CC3)c(C)n12` [Example 447, [(1~{R},2~{R},4~{S})-2-amino-7-azabicyclo [2.2.1]heptan-7-yl]-[2-[1-(cyclopropylmethyl)-6-[(3~{R})-1,1-dioxo-3-(trifluoromethyl)thiazinan-2-yl]pyrrolo[2,3-b]pyridin-2-yl]-5-methoxy-3-methylimidazo[1,2-a]pyridin-7-yl]methanone] the IC50 was 187 nM. For `COc1cc(C(=O)N2[C@H]3CC[C@@H]2[C@H](N)C3)cc2nc(-c3cc4ccc(N5CCOCCS5(=O)=O)nc4n3CC3CC3)c(C)n12` [Example 451, [(1~{R},2~{R},4~{S})-2-amino-7-azabicyclo [2.2.1]heptan-7-yl]-[2-[1-(cyclopropylmethyl)-6-(4,4-dioxo-1,4,5-oxathiazepan-5-yl)pyrrolo [2,3-b]pyridin-2-yl]-5-methoxy-3-methylimidazo[1,2-a]pyridin-7-yl]methanone], the IC50 was 21.8 nM. With `COc1cc(C(=O)N2[C@H]3CC[C@@H]2[C@H](N)C3)cc2nc(-c3cc4ccc([C@@H](C)NC(=O)N5CC(O)(C(F)(F)F)C5)nc4n3CC3CC3)c(C)n12` [Example 197, ~{N}-[(1~{R})-1-[2-[7-[(1~{R},2~{R},4~{S})-2-amino-7-azabicyclo[2.2.1]heptane-7-carbonyl]-5-methoxy-3-methylimidazo [1,2-a]pyridin-2-yl]-1-(cyclopropylmethyl)pyrrolo [2,3-b]pyridin-6-yl]ethyl]-3-hydroxy-3-(trifluoromethyl)azetidine-1-carboxamide] the IC50 was 41.3 nM. `COc1cc(C(=O)N2C[C@H](N)C[C@@H](F)C2)cc2nc(-c3cc4ccc([C@@H](C)NC(=O)C56CC(F)(C5)C6)nc4n3CC3CC3)c(C)n12` [Example 36, ~{N}-[(1~{R})-1-[2-[7-[(3~{R}, 5~{R})-3-amino-5-fluoropiperidine-1-carbonyl]-5-methoxy-3-methylimidazo[1,2-a]pyridin-2-yl]-1-(cyclopropylmethyl)pyrrolo[2,3-b]pyridin-6-yl]ethyl]-3-fluorobicyclo[1.1.1] pentane-1-carboxamide] gave an IC50 of 369 nM. For `COc1cc(C(=O)N2CCC[C@@H](N)C2)cc2nc(-c3cc4ccc([C@@H](C)N5CCCC5=O)nc4n3CC3CC3)c(C)n12` [Example 279, 1-[(1~{R})-1-[2-[7-[(3~{R})-3-aminopiperidine-1-carbonyl]-5-methoxy-3-methylimidazo [1,2-a]pyridin-2-yl]-1-(cyclopropylmethyl)pyrrolo [2,3-b]pyridin-6-yl]ethyl] pyrrolidin-2-one], the IC50 was 234 nM.
